Experimental data as given in PubChem BioAssay AID2305 (GlaxoSmithKline (GSK), 2010).

The compounds below were run on P. falciparum 3D7 growth, pLDH absorbance (assay: P. falciparum 3D7 growth inhibition, dose response, strain 3D7 (AID 2305)).

| SMILES | IC50 |
| --- | --- |
| O=C(NCc1cccc(F)c1)Nc1ccc(-c2cccc(-c3nc4ccc(F)cc4[nH]3)c2)cc1 | 0.77 µM |
| Cc1cc(NCCc2ccccc2)nc(/N=C(\N)Nc2ccccc2Cl)n1 | 0.79 µM |
| c1ccc(-c2nnc(-c3ccccn3)nc2NC2CCCCC2)cc1 | 0.91 µM |
| CN(C)CCCNc1ncnc2c1[nH]c1ccc(Cl)cc12 | 0.28 µM |
| CCN1CC[C@]2(c3cccc(OC)c3)Cc3nc4ccccc4c(-c4ccccc4)c3C[C@H]2C1 | 0.35 µM |
| COc1ccc(C2C(C(=O)Nc3cc(C)ccc3OC)c3ccccc3C(=O)N2C)cc1 (stereo unspecified) | 0.98 µM |
| Cc1cc(Oc2cc(NC(=O)c3sc4ncn(Cc5ccccc5F)c(=O)c4c3C)cc([N+](=O)[O-])c2)ccc1Cl | 1.15 µM |
| N#Cc1ccc2c(c1)CCN(CCC1CCC(NC(=O)c3ccc(-c4ccccc4)s3)CC1)CC2 (stereo unspecified) | 0.68 µM |
| Cc1cc(OCC2CCN(c3ccc(C(=O)NC4CC4)cn3)CC2)ccc1F | 0.87 µM |
| O=C1O[C@H](c2ccccc2)[C@H](c2ccccc2)N(C(=O)OCc2ccccc2)[C@H]1Cc1ccccc1C1CCCC1 | 0.06 µM |
| Cc1ccccc1Nc1cc(Nc2ccccc2C)c2ccccc2n1 | 0.78 µM |
| O=C(/C=C/c1ccc(Cl)c(Cl)c1)NCCCCCN1CCC(C(=O)Nc2ccc(Cl)cc2)CC1 | 0.78 µM |
| Fc1ccc2[nH]cc(CCN3CCC(CNCc4ccccc4)CC3)c2c1 | 0.03 µM |
| Cc1cc(-c2ccc3c(c2)CCN(CCCOc2ccc4c(c2)CCN4C(=O)/C=C/c2ccccc2Cl)CC3)no1 | 1.23 µM |
| O=C(CSc1ccccn1)Nc1c(F)cccc1F | 1.21 µM |
| O=C(CNCC1CCCCC1)Nc1cc(C(F)(F)F)ccc1Cl | 0.98 µM |
| Cn1c(NC(=O)C2CCC(CNC(=O)c3ccc(O)c(-c4cccc([N+](=O)[O-])c4)c3)CC2)nc2ccccc21 (stereo unspecified) | 0.98 µM |
| C=CCOC(=O)N1CCC(CNCc2ccc(-c3ccc(-c4nc5ccccc5[nH]4)s3)cc2)C1 (stereo unspecified) | 0.23 µM |
| COc1cc(CCCON2C(N)=NC(N)=NC2(C)C)cc(OC)c1OC | 0.04 µM |
| CC[C@H]1CN(CCCC(=O)c2ccccc2)CC[C@H]1CCCc1ccnc2ccc(OC(=O)c3ccccc3)cc12 | 0.83 µM |
| CCCC(=O)c1cnc2c(I)cccc2c1Nc1ccccc1C | 1.16 µM |
| O=S(=O)(NCCN1CCCC1)c1ccc(-c2ccc(CNCc3ccccc3)cc2)cc1F | 1.29 µM |
| COc1cc2nc(N3CCC(NC(=O)c4cccc(N(C)C)c4)CC3)nc(N)c2cc1OC | 0.61 µM |
| Cc1cnc(C(=O)Nc2cccc(-c3cccc(-c4nc5ccc(F)cc5[nH]4)c3)c2)cn1 | 0.77 µM |

| SMILES | IC50 |
| --- | --- |
| Cc1cc2c3c(N)nc(N)nc3ccc2n1C | 0.09 µM |
| CCOC(=O)c1ccc(NC(=O)NNC(=O)c2ccc(CCN3CCC(c4nc(COCC(F)(F)F)c(-c5ccc(F)cc5)o4)CC3)cc2)cc1 | 0.57 µM |
| C[C@@H](CC1CCCCC1)NCc1ccccc1O | 0.93 µM |
| Fc1ccc2nc(-c3ccc(-c4ccc(CNCCc5ccncc5)cc4)cc3)[nH]c2c1 | 0.14 µM |
| c1cc(-c2ccc(CNCCCN3CCOCC3)cc2)cc(-c2nc3ccccc3[nH]2)c1 | 0.21 µM |
| Cc1cc(NC(=O)Nc2ccc(C(C)C)cc2)c2ccccc2n1 | 0.66 µM |
| CC1(C)CN(CCC2CCC(NC(=O)/C=C/c3ccccc3F)CC2)Cc2ccc(C#N)cc21 (stereo unspecified) | 1.11 µM |
| Cc1noc(C)c1-c1cccc(CNCc2ccc(-c3cccc(-c4nc5ccccc5[nH]4)c3)cc2)c1 | 0.57 µM |
| CC(C)c1ccc(NC(=O)c2cccc(CN3CCCN(Cc4cccc(C#N)c4)CC3)c2)cc1 | 0.95 µM |
| CN1CCN(CC(=O)Nc2ccc(-c3ccc(-c4nc5ccc(C(F)(F)F)cc5[nH]4)cc3)cc2)CC1 | 0.42 µM |
| COc1cccc(CN2CCC(CCOC(c3ccccc3)c3ccccc3)CC2)c1O | 0.73 µM |
| O=C(NC1CC1)c1ccc(N2CCC(c3ccccc3)CC2)nc1 | 1.11 µM |
| Oc1ccccc1CCNCC1CCc2ccccc2C1 (stereo unspecified) | 0.69 µM |
| Cc1cc2cc(NC(=O)Nc3ccnc4ccccc34)ccc2n1C | 1.09 µM |
| Cc1ccc2c(Cl)c(C(=O)N3CC(C)OC(C)C3)sc2c1 (stereo unspecified) | 0.18 µM |
| CN(C)CC1c2[nH]c3ccccc3c2CCN1C(=O)Nc1ccc(Cl)c(Cl)c1 (stereo unspecified) | 1.21 µM |
| COc1cccc(NC(=O)c2cc(Br)cc(N3CCN(c4ccncc4)CC3)c2)c1 | 0.77 µM |
| Cc1cc(C)c(C(=O)Nc2ccc3nc(C)cc(N)c3c2)c(C)c1 | 1.09 µM |
| O=C(Nc1ccc(N2CCNCC2)nc1)c1oc(-c2ccccc2)nc1C(F)(F)F | 0.98 µM |
| NC(=NCCCCCCN=C(N)/N=C(\N)c1ccc(Cl)cc1)/N=C(\N)c1ccc(Cl)cc1 | 0.21 µM |
| COc1ccccc1CC1CCCN(C2CCC(NC(=O)c3cc4ccccc4[nH]3)CC2)C1 (stereo unspecified) | 0.84 µM |
| CCOC(=O)c1ccc(-n2c(C)cc(C=C3SC(=Nc4ccccc4)N(C4CCCC4)C3=O)c2C)cc1 | 1.17 µM |
| CN(C)c1nc2cc(-n3cnc4cc(-c5ccc(Cl)cc5)sc4c3=O)ccc2n1CCCN1CCCCC1 | 0.84 µM |
| Oc1cccc2ccc(Nc3ccccn3)nc12 | 0.75 µM |

| SMILES | IC50 |
| --- | --- |
| Cc1[nH]c(C)c(-c2ccc(OCCOc3ccc(C(F)(F)F)cn3)cc2)c(=O)c1Br | 0.14 µM |
| O=C(Nc1ccc(-c2ccc(-c3nc4ccccc4[nH]3)cc2)cc1)Nc1ccc(Cl)c(Cl)c1 | 0.1 µM |
| N#Cc1ccc(N(CC(=O)NCCc2ccccc2)CC2CC2)c2ccccc12 | 0.73 µM |
| Nc1nc2c(ncn2OC[C@H]2COP(=O)(O)CO2)c(=O)[nH]1 | 0.57 µM |
| CN(C)CCNc1nccc(N2CCc3ncnc(Nc4ccc(OCc5cccc(F)c5)c(Cl)c4)c3C2)n1 | 0.14 µM |
| COc1ccc(NC(=O)/C=C/c2ccccc2Cl)cc1OCCN1CCC(Cc2cc3ccccc3[nH]2)CC1 | 0.9 µM |
| CN(CCCCCN1CCC(NC(=O)Nc2ccc(Oc3ccccc3)cc2)C1)C(=O)/C=C/c1ccc(Cl)c(Cl)c1 (stereo unspecified) | 0.42 µM |
| O=C(NCCNc1ccnc(Nc2ccc(F)cc2)n1)Nc1ccc2c(c1)OCO2 | 0.68 µM |
| COc1ccc(NC(=O)/C=C/c2ccccc2Cl)cc1OCCN1CCC(NC2CC2)CC1 | 0.84 µM |
| O=C(Nc1ccc(Cl)cc1)c1cccc(S(=O)(=O)NC2CCN(CC3CCCCC3)CC2)c1 | 0.72 µM |
| CCn1c(-c2nonc2N)nc2c(-c3cccc(NC(=O)Nc4ccc(C(F)(F)F)cc4)c3)ncc(OCCCN)c21 | 1.05 µM |
| CC(=O)c1cccc2cc(C(=O)NC3CCC(CCN4CCc5ccc(C#N)cc5C4)CC3)[nH]c12 (stereo unspecified) | 0.79 µM |
| CCOc1cc(C=Cc2nc3ccccc3c(=O)[nH]2)cc(Cl)c1O | 1.18 µM |
| COc1ccccc1CN1CCC(NC(=O)c2ccc(-c3cccc(C(F)(F)F)c3)s2)CC1 | 1.31 µM |
| Cc1ccccc1Nc1nc(NCc2ccccc2)nc2ccccc12 | 1.02 µM |
| O=C(N[C@@H](Cc1ccccc1)C(=O)NCCN1CCOCC1)c1ccc(O)c(-c2ccc(Cl)c(Cl)c2)c1 | 0.92 µM |
| CN1CCN(CC(=O)Nc2ccc(-c3cccc(-c4nc5ccc(F)cc5[nH]4)c3)cc2)CC1 | 0.83 µM |
| CC[C@@]1(O)C(=O)OCc2c1cc1n(c2=O)Cc2c-1nc1cc3c(cc1c2CN1CCN(C)CC1)OCCO3 | 0.45 µM |
| CC(=O)Nc1ccc(CN2CCC(CNC(=O)c3cc(-c4cccc(C(F)(F)F)c4)cs3)C2)cc1 (stereo unspecified) | 1.1 µM |
| CCOc1ccc(CNCCCCCCNCc2ccc(OCC)c3ccccc23)c2ccccc12 | 0.45 µM |
| CC(C)[C@H](NC(=O)c1ccc(O)c(-c2ccc(Cl)c(Cl)c2)c1)C(=O)NCCN1CCOCC1 | 0.91 µM |
| c1ccc(-n2ncc(CNCc3ccc(-c4ccc(-c5nc6ccccc6[nH]5)s4)cc3)n2)cc1 | 1.4 µM |
| COc1ccc2nccc([C@@H](O)CN3CCC(NCc4cc5cc(C)ccc5s4)CC3)c2c1 | 0.64 µM |
